Source: patent publication US20240366770A1, “DEGRADATION OF BRUTON'S TYROSINE KINASE (BTK) BY CONJUGATION OF BTK INHIBITORS WITH E3 LIGASE LIGAND AND METHODS OF USE” (BeiGene Switzerland GmbH, priority 2021, published 2024)

Assays:
BTK = target: T1, BTK (Homo sapiens, UniProt Q06187); test: BTK degradation in TMD-8 cells (HTRF assay); assay type: cell-based; conditions: 6 h treatment, IC50 (DC50) of BTK degradation
T1 construct: High control=Cell group with added DMSO and without compound, indicating microplate readings without BTK degradation; endogenous in cells; host or cells: TMD-8
Outline: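 TMD-8 cells were exposed for 6 h to 8 compound doses (6-fold serial dilution, 0.2% DMSO). Lysed cells were incubated overnight at room temperature with HTRF antibodies and read at 665/620 nm. DC50 came from four-parameter fitting of % inhibition versus concentration.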

HEK-293 cells = test: HEK-293 cytotoxicity detection (CellTiter-Glo); assay type: cell-based; conditions: Homo sapiens; HEK-293 cells, 72 h incubation, CellTiter-Glo luminescence, IC50 of cell proliferation inhibition; read-out: HEK293
Outline: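 HEK-293 cells exposed 72 h to an 8-point, 4-fold dilution series (top 500× stock 5 mM in DMSO; 0.2% DMSO final). Viability by CellTiter-Glo luminescence after 10 min at room temperature; IC50 from four-parameter Hill fit of percent inhibition.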

T1 sequence (Q06187 whole entry): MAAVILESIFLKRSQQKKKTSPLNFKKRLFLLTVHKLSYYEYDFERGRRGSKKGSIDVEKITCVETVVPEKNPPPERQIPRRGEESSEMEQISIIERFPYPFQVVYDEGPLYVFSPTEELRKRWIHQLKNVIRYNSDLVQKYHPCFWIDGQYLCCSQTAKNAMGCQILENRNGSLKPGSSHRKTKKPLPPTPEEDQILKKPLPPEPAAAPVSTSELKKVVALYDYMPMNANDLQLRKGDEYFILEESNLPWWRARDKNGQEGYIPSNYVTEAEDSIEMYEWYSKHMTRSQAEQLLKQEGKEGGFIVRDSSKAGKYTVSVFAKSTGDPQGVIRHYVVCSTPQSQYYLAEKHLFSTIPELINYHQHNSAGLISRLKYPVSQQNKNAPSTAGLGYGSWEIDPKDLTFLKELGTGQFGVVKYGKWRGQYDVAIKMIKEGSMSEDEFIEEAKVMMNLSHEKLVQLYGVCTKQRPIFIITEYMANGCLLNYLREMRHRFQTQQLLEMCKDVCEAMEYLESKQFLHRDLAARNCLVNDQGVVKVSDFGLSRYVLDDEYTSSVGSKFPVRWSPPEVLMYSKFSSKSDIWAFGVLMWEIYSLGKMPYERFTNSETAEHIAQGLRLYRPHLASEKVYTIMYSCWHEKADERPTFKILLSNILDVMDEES

DC50 (BTK)	Structure (SMILES)	IC50 (HEK-293 cells)
63.2 nM	C[C@@H](NC(=O)c1nc(C(C)(C)C)no1)C1CCN(c2ncnc3[nH]c4cc(N5CCN(CC6CCN(c7ccc(N8CCC(=O)NC8=O)cc7)CC6)CC5)ccc4c23)CC1 [Example 130, (R)-3-(tert-butyl)-N-(1-(1-(7-(4-((1-(4-(2,4-dioxotetrahydropyrimidin-1(2H)-yl)phenyl)piperidin-4-yl)methyl)piperazin-1-yl)-9H-pyrimido[4,5-b]indol-4-yl)piperidin-4-yl)ethyl)-1,2,4-oxadiazole-5-carboxamide]	> 10000 nM
27.5 nM	CC(C)(C)c1noc(C(=O)NC(C)(C)C2CCN(c3ncnc4[nH]c5cc(N6CCN(CC7CCN(c8ccc(N9CCC(=O)NC9=O)cc8)CC7)CC6)ccc5c34)CC2)n1 [Example 131, 3-(tert-butyl)-N-(2-(1-(7-(4-((1-(4-(2,4-dioxotetrahydropyrimidin-1(2H)-yl)phenyl)piperidin-4-yl)methyl)piperazin-1-yl)-9H-pyrimido[4,5-b]indol-4-yl)piperidin-4-yl)propan-2-yl)-1,2,4-oxadiazole-5-carboxamide]	> 10000 nM
> 2000 nM	Cc1cc(-c2ncnc3[nH]c4c(c23)CCC(N2CCN(CC3CCN(c5ccc(N6CCC(=O)NC6=O)cc5)CC3)CC2)C4)ccc1[C@@H](C)NC(=O)c1nc(C(C)(C)C)no1 (stereo partly drawn) [Example 132, 3-(tert-butyl)-N-((1R)-1-(4-(7-(4-((1-(4-(2,4-dioxotetrahydropyrimidin-1(2H)-yl)phenyl)piperidin-4-yl)methyl)piperazin-1-yl)-6,7,8,9-tetrahydro-5H-pyrimido[4,5-b]indol-4-yl)-2-methylphenyl)ethyl)-1,2,4-oxadiazole-5-carboxamide]	> 10000 nM
> 2000 nM	Cc1cc(-c2ncnc3[nH]c4c(c23)CCC(N2CCN(C3CC(c5ccc([C@H]6CCC(=O)NC6=O)cc5)C3)CC2)C4)ccc1[C@@H](C)NC(=O)c1nc(C(C)(C)C)no1 (stereo partly drawn) [Example 133, 3-(tert-butyl)-N-((1R)-1-(4-(7-(4-(3-(4-((R)-2,6-dioxopiperidin-3-yl)phenyl)cyclobutyl)piperazin-1-yl)-6,7,8,9-tetrahydro-5H-pyrimido[4,5-b]indol-4-yl)-2-methylphenyl)ethyl)-1,2,4-oxadiazole-5-carboxamide]	> 10000 nM
